Data set [1] has as its target T1, Alpha-1D adrenergic receptor (Homo sapiens, UniProt P25100).
T1 sequence (P25100 whole entry): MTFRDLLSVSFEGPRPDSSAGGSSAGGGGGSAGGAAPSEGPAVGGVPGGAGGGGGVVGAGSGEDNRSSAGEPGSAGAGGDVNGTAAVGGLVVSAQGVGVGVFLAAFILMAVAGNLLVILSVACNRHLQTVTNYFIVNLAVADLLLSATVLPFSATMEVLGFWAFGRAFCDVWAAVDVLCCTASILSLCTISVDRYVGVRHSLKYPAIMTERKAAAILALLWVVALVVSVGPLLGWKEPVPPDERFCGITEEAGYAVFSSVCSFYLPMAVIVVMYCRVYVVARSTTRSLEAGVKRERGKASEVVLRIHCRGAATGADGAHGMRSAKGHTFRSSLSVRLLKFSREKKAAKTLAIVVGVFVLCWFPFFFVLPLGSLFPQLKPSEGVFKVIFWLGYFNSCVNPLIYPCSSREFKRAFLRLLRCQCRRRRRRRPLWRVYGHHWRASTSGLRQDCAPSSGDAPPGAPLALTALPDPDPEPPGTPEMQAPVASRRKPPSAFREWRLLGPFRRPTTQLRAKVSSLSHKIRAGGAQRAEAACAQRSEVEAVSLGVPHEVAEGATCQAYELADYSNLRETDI
Briefly: In vitro binding affinity against cloned human alpha-1D-adrenoceptor receptors expressed in rat-1 fibroblasts.

Data set [2] can be described thus: Acid dissociation constant for the compound was determined. Format: ADME.
The target in data set [3] is T2, Alpha-1A adrenergic receptor (Homo sapiens, UniProt P35348).
T2 sequence (P35348 whole entry): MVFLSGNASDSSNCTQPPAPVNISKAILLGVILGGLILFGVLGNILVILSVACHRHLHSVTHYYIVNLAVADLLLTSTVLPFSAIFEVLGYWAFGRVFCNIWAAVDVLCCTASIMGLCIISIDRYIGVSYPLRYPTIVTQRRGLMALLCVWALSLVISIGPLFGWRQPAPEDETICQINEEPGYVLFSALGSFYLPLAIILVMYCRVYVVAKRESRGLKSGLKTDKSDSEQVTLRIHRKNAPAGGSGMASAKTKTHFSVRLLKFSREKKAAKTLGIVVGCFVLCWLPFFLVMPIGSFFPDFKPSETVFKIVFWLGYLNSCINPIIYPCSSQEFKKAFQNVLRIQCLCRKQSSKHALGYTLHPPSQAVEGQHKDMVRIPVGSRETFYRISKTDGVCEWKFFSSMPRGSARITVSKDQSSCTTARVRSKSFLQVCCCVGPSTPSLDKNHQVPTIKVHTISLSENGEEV
Briefly: In vitro binding affinity against cloned human alpha-1A-adrenoceptor receptors expressed in rat-1 fibroblasts.

In data set [4] the target is T3, Alpha-1D adrenergic receptor (Homo sapiens) (UniProt P25100).
T3 sequence (whole entry): T1 sequence (P25100 whole entry)
Briefly: Activation of human alpha-1D-adrenoceptor receptor expressed in rat-1 fibroblasts relative to phenylephrine. Type of data set: functional.

The target of data set [5] is T4, Alpha-1B adrenergic receptor (Homo sapiens, UniProt P35368).
T4 sequence (P35368 whole entry): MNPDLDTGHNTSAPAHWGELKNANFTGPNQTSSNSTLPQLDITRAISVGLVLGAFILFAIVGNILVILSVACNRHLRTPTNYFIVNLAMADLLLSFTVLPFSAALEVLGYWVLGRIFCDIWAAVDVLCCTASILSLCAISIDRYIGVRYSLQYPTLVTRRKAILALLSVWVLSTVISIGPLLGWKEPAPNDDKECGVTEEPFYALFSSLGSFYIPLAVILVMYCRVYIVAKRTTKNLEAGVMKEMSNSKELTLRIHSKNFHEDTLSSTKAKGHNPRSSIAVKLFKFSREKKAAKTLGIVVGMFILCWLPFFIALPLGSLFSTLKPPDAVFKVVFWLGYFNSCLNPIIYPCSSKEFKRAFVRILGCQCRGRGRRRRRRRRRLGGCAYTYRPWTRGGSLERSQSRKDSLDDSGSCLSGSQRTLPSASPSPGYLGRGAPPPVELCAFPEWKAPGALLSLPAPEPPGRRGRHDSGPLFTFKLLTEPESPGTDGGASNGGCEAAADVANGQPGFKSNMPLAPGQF
Briefly: In vitro binding affinity against cloned human alpha-1B-adrenoceptor receptors expressed in rat-1 fibroblasts.

Data set [6] deals with T1, Alpha-1D adrenergic receptor. Briefly: Activation of human Alpha-1D adrenergic receptors expressed in rat-1 fibroblasts. Format: functional.
The target of data set [7] is T4, Alpha-1B adrenergic receptor. Briefly: Activation of human alpha-1B adrenergic receptors expressed in rat-1 fibroblasts. Format: functional.
Data set [8] addresses T5, Alpha-1B adrenergic receptor (Homo sapiens) (UniProt P35368).
T5 sequence (whole entry): T4 sequence (P35368 whole entry)
Briefly: Activation of human alpha-1B-adrenoceptor receptors expressed in rat-1 fibroblasts as percent maximal effect relative to phenylephrine. Format: functional.

Data set [9] deals with T6, Alpha-1A adrenergic receptor (Homo sapiens) (UniProt P35348).
T6 sequence (whole entry): T2 sequence (P35348 whole entry)
Briefly: Activation of human alpha-1A adrenergic receptor expressed in rat-1 fibroblasts; expressed as a percent of the maximal effect of the phenylephrine. Format: functional.

Data set [10] deals with T2, Alpha-1A adrenergic receptor. Briefly: Activation of human alpha-1A adrenergic receptor expressed in rat-1 fibroblasts. Type of data set: functional.

As a reminder, the IC50 is the concentration that gives 50% inhibition. A low value points to inhibition by little substance. Usually pKa stands for the negative logarithm of the acid dissociation constant. A lower pKa goes with a group that gives up its proton readily. The term EC50 denotes the midpoint of the concentration-response curve. In the case of `CSc1ccccc1NCC1=NCCN1`, the IC50 in data set [1] was 19.5 nM; in data set [3], 107 nM; in data set [5], 219 nM. This compound displayed a pKa in data set [2] of 10.3. In addition, the Max in [4] was 55%; in data set [8] it was 105%; in [9], 105%. For the same compound, the values for the EC50 in data set [6], in [7] and in data set [10] were 7.94 nM, 2 nM and 5.01 nM, respectively.

These data come from ChEMBL document CHEMBL1134991, “Alpha(1)-adrenoceptor activation: a comparison of 4-(anilinomethyl)imidazoles and 4-(phenoxymethyl)imidazoles to related 2-imidazolines” (Bioorg Med Chem Lett, 2002).
